Structures can show the parent of a compound that is named as a salt.
Columns and labels:
guinea pigs = test: Forssman Shock Test; assay type: in vivo, guinea pig; details: control = 3.15 minutes
Description: (§1) This test measures the ability of activated human C1 to destroy fluid phase human C2 in the presence of C4 and appropriate dilutions of the test compound. An active inhibitor protects C2 from C1 and C4; (ii) Test, Code 035 (C3-C9 inhibitor) -- This test determines the ability of the late components of human complement (C3-C9) to lyse EAC 142 in the presence of appropriate dilutions of the test compound. An active inhibitor protects EAC 142 from lysis by human C3-C9; (iii) Test, Code 036 (C-Shunt inhibitor) -- In this test human erythrocytes rendered fragile are lysed in autologous serum via the shunt pathway activated by cobra venom factor in the presence of appropriate dilutions of the test compound. Inhibition of the shunt pathway results in failure of lysis; (iv) Forssman Vasculitis Test -- Here, the well known complement dependent lesion, Forssman vasculitis, is produced in guinea pigs by intradermal injection of rabbit anti-Forssman antiserum. The lesion is measured in terms of diameter, edema and hemorrhage and the extent to which a combined index of these is inhibited by prior intraperitoneal injection of the test compound at 200 mg/kg is then reported, unless otherwise stated; (v) Forssman Shock Test -- Lethal shock is produced in guinea pigs by an i.v. injection of anti-Forssman antiserum and the harmonic mean death time of treated guinea pigs is compared with that of simultaneous controls; (vi) Complement Level Reduction Test -- In this test, the above dosed guinea pigs, or others, are bled for serum and the complement level is determined in undiluted serum by the capillary tube method of U.S. Pat. No. 3,876,376 and compared to undosed control guinea pigs; and (vii) Cap 50 Test -- Here, appropriate amounts of the test compound are added to a pool of guinea pig serum in vitro, after which the undiluted serum capillary tube assay referred to above is run. The concentration of compound inhibiting 50% is reported.
***Harmonic mean death time in minutes. (control = 3.15 minutes).

[1] = tested on: late components of human complement (C3-C9); test: Test, Code 035 (C3-C9 inhibitor), lysis of EAC 142; assay type: cell-based; details: serial two-fold dilutions assay; higher well number indicates higher activity
Experimental: as §1, with “An active inhibitor protects EAC 142 from lysis by human C3-C9; (iii) Test, Code 036 (C-Shunt inhibitor) -- In this test human erythrocytes rendered fragile are lysed in autologous serum via the shunt pathway activated by cobra venom factor in the presence of appropriate dilutions of the test compound. Inhibition of the shunt pathway results in failure of lysis; (iv) Forssman Vasculitis Test -- Here, the well known complement dependent lesion, Forssman vasculitis, is produced in guinea pigs by intradermal injection of rabbit anti-Forssman antiserum.” left out, “The concentration of compound inhibiting 50% is reported.” left out

[2] = tested on: shunt pathway activated by cobra venom factor; test: Test, Code 036 (C-Shunt inhibitor), lysis of human erythrocytes in autologous serum; assay type: cell-based; details: serial two-fold dilutions assay; higher well number indicates higher activity
Description: as §1
(§2) **Numbers represent activity in wells, a serial dilutions assay, higher
(§3) well number indicates higher activity. The serial dilutions are two-fold.

activated human C1 = biological target: T1, activated human C1 (Homo sapiens, UniProt P09871); test: Test, Code 026 (C1 inhibitor); assay type: biochemical; details: serial two-fold dilutions assay; higher well number indicates higher activity
T1 construct: C1s cleaved into disulfide-linked heavy and light chains; fluid-phase C2 consumption with C4
T1 sequence (P09871 16-688): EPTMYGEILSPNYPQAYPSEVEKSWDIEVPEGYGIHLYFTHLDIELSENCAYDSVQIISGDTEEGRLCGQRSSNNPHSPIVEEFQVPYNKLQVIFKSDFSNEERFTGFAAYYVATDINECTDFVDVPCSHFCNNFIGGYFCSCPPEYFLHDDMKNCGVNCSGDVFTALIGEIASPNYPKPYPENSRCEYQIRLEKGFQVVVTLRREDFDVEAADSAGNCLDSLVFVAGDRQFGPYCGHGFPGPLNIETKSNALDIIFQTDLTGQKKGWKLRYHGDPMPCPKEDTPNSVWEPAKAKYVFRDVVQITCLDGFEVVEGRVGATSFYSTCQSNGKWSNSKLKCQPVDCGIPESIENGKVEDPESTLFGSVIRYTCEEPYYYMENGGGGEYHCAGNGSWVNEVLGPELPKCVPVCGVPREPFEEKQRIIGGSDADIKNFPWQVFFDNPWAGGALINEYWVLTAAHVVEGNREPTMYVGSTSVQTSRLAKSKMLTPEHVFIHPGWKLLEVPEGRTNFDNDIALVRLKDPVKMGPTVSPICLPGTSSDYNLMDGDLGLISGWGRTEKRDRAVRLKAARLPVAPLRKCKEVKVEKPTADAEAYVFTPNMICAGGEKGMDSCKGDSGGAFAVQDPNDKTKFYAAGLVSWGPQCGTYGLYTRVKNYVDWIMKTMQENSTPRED
T1 sequence (P00736 18-705 partner): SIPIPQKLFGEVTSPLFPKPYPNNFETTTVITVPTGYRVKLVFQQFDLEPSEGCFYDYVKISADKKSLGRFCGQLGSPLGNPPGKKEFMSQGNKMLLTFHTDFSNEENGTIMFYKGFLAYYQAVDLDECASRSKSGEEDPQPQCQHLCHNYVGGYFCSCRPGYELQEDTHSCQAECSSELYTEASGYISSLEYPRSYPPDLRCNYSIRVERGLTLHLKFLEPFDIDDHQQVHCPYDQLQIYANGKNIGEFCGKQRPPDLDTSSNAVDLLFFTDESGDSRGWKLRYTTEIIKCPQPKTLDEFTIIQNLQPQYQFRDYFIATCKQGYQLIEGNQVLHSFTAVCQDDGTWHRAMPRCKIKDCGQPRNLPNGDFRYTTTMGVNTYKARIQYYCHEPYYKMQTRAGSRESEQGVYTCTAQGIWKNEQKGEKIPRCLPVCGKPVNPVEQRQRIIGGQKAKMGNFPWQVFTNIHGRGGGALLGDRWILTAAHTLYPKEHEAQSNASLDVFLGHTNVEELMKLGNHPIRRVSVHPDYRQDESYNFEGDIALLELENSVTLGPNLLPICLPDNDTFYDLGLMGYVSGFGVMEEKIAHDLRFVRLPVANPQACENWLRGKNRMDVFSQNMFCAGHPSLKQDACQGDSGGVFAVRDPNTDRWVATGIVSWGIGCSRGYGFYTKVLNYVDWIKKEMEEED
T1 sequence (P02745 23-245 partner): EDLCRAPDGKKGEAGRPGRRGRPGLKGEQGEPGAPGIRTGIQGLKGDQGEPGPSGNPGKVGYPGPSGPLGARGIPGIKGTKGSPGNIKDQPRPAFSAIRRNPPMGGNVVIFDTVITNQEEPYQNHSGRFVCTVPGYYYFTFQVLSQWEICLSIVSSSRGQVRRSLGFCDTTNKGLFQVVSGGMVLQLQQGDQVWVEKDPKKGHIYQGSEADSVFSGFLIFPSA
T1 sequence (P02746 28-253 partner): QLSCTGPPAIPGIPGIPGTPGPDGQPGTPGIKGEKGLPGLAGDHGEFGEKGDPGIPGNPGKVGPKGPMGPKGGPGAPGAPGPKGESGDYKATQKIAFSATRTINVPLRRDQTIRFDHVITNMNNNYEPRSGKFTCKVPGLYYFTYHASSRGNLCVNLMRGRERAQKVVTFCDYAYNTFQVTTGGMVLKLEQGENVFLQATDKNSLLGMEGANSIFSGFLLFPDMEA
T1 sequence (P02747 29-245 partner): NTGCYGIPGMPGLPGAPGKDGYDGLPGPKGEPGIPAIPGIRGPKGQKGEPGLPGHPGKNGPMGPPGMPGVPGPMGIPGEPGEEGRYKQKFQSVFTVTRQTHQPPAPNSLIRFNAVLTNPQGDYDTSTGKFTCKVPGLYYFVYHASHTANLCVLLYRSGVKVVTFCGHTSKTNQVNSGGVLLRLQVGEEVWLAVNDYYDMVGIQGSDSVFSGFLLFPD
Description: as §1, §2, §3

SMILES | Forssman Shock, harmonic mean death time (guinea pigs; route not given) | Code 026 (activity in wells) (activated human C1) | other results
O=C(Nc1cccc(C(=O)Nc2cc3c(S(=O)(=O)[O-])cc(S(=O)(=O)[O-])cc3cc2S(=O)(=O)[O-])c1)Nc1cccc(C(=O)Nc2cc3c(S(=O)(=O)[O-])cc(S(=O)(=O)[O-])cc3cc2S(=O)(=O)[O-])c1.[Na+].[Na+].[Na+].[Na+].[Na+].[Na+] [7,7'-[Ureylenebis(m-phenylenecarbonylimino)]di-1,3,6-naphthalenetrisulfonic acid, hexasodium salt] | 14 min | – | Code 035 (activity in wells) [1]: +1 wells; Code 036 (activity in wells) [2]: +1 wells
Nc1cccc(C(=O)Nc2cc3c(S(=O)(=O)[O-])cc(S(=O)(=O)[O-])cc3cc2S(=O)(=O)[O-])c1.[Na+].[Na+].[Na+] [7-(m-Aminobenzamido)-1,3,6-naphthalenetrisulfonic acid, trisodium salt] | 33 min | – | –
O=C(Nc1cc2c(S(=O)(=O)[O-])cc(S(=O)(=O)[O-])cc2cc1S(=O)(=O)[O-])c1cccc([N+](=O)[O-])c1.[Na+].[Na+].[Na+] [7-m-Nitrobenzamido-1,3,6-naphthalenetrisulfonic acid, trisodium salt] | 20 min | – | –
Cc1ccc(C(=O)Nc2cc(S(=O)(=O)O)cc3cc(S(=O)(=O)O)cc(S(=O)(=O)O)c23)cc1NC(=O)Nc1cc(C(=O)Nc2cc(S(=O)(=O)O)cc3cc(S(=O)(=O)O)cc(S(=O)(=O)O)c23)ccc1C [8,8'-[Ureylenebis(4-methyl-m-phenylenecarbonylimino)]di-1,3,6-naphthalenetrisulfonic acid, hexasodium salt] | – | – | Forssman Shock, harmonic mean death time (guinea pigs; i.p.): 28 min; Forssman Shock, harmonic mean death time (guinea pigs; i.v.): 46 min
Cc1ccc(NC(=O)Nc2ccc(C)c(C(=O)Nc3cc(S(=O)(=O)O)cc4cc(S(=O)(=O)O)cc(S(=O)(=O)O)c34)c2)cc1C(=O)Nc1cc(S(=O)(=O)O)cc2cc(S(=O)(=O)O)cc(S(=O)(=O)O)c12 [8,8'-[Ureylenebis(6-methyl-m-phenylenecarbonylimino)]di-1,3,6-naphthalenetrisulfonic acid, hexasodium salt] | 11 min | +5 wells | Code 035 (activity in wells) [1]: +4 wells
O=C(Nc1cccc(C(=O)Nc2cc(S(=O)(=O)[O-])cc3cc(S(=O)(=O)[O-])cc(S(=O)(=O)[O-])c23)c1)Nc1cccc(C(=O)Nc2cc(S(=O)(=O)[O-])cc3cc(S(=O)(=O)[O-])cc(S(=O)(=O)[O-])c23)c1.[Na+].[Na+].[Na+].[Na+].[Na+].[Na+] [8,8'-[Ureylenebis(m-phenylenecarbonylimino)]di-1,3,6-naphthalenetrisulfonicacid, hexasodium salt] | – | +6 wells | Code 036 (activity in wells) [2]: +1 wells
O=C(Nc1ccc(C(=O)Nc2cc(S(=O)(=O)[O-])cc3cc(S(=O)(=O)[O-])cc(S(=O)(=O)[O-])c23)cc1)Nc1ccc(C(=O)Nc2cc(S(=O)(=O)[O-])cc3cc(S(=O)(=O)[O-])cc(S(=O)(=O)[O-])c23)cc1.[Na+].[Na+].[Na+].[Na+].[Na+].[Na+] [8,8'-[Ureylenebis(p-phenylenecarbonylimino)]di-1,3,6-naphthalenetrisulfonicacid, hexasodium salt] | – | +4 wells | –
Cc1ccc(C(=O)Nc2cc(S(=O)(=O)O)cc3cc(S(=O)(=O)O)cc(S(=O)(=O)O)c23)cc1NC(=O)C(=O)Nc1cc(C(=O)Nc2cc(S(=O)(=O)O)cc3cc(S(=O)(=O)O)cc(S(=O)(=O)O)c23)ccc1C [8,8'-{Oxalylbis {{[imino(4-methyl-1,3-phenylene)]carbonyl}imino}}di-1,3,6-naphthalenetrisulfonic acid, hexasodium salt] | – | +4 wells | Code 036 (activity in wells) [2]: +3 wells
Cc1ccc(NC(=O)Nc2cc(S(=O)(=O)O)cc3cc(S(=O)(=O)O)cc(S(=O)(=O)O)c23)cc1NC(=O)Nc1cc(NC(=O)Nc2cc(S(=O)(=O)O)cc3cc(S(=O)(=O)O)cc(S(=O)(=O)O)c23)ccc1C [8,8'-{Ureylenebis[(4-methyl-m-phenylene)ureylene]}di-1,3,6-naphthalenetrisulfonic acid, hexasodium salt] | – | +4 wells | Code 036 (activity in wells) [2]: +1 wells
Cc1ccc(C(=O)Nc2cc(S(=O)(=O)O)cc3cc(S(=O)(=O)O)cc(S(=O)(=O)O)c23)cc1N [8-(3-Amino-p-toluamido)-1,3,6-naphthalenetrisulfonic acid, trisodium salt] | 14 min | +3 wells | –
Cc1ccc(C(=O)Nc2cc(S(=O)(=O)O)cc3cc(S(=O)(=O)O)cc(S(=O)(=O)O)c23)cc1[N+](=O)[O-] [8-(3-Nitro-p-toluamido)-1,3,6-naphthalenetrisulfonic acid, trisodium salt] | 25 min | +2 wells | –
Cc1cc(C(=O)Nc2cc(S(=O)(=O)O)cc3cc(S(=O)(=O)O)cc(S(=O)(=O)O)c23)ccc1N [8-(4-Amino-m-toluamido)-1,3,6-naphthalenetrisulfonic acid, trisodium salt] | 14 min | +3 wells | –
Cc1cc(C(=O)Nc2cc(S(=O)(=O)O)cc3cc(S(=O)(=O)O)cc(S(=O)(=O)O)c23)ccc1[N+](=O)[O-] [8-(4-Nitro-m-toluamido)-1,3,6-naphthalenetrisulfonic acid, trisodium salt] | 46 min | +1 wells | –
Cc1ccc(N)cc1C(=O)Nc1cc(S(=O)(=O)O)cc2cc(S(=O)(=O)O)cc(S(=O)(=O)O)c12 [8-(5-Amino-o-toluamido)-1,3,6-naphthalenetrisulfonic acid, trisodium salt] | 14 min | – | –
Nc1ccc(C(=O)Nc2cc(S(=O)(=O)[O-])cc3cc(S(=O)(=O)[O-])cc(S(=O)(=O)[O-])c23)cc1.[Na+].[Na+].[Na+] [8-(p-Aminobenzamido)-1,3,6-naphthalenetrisulfonic acid, trisodium salt] | 10 min | +3 wells | –
Nc1cccc(C(=O)Nc2cccc(C(=O)Nc3cc(S(=O)(=O)[O-])cc4cc(S(=O)(=O)[O-])cc(S(=O)(=O)[O-])c34)c2)c1.[Na+].[Na+].[Na+] [8-[m-(m-Aminobenzamido)benzamido]-1,3,6-naphthalene-trisulfonic acid, trisodium salt] | – | +2 wells | –
O=C(Nc1cc(S(=O)(=O)[O-])cc2cc(S(=O)(=O)[O-])cc(S(=O)(=O)[O-])c12)c1ccc([N+](=O)[O-])cc1.[Na+].[Na+].[Na+] [8-p-Nitrobenzamido-1,3,6-naphthalenetrisulfonic acid, trisodium salt] | 13 min | +1 wells | –
Cc1ccc(NC(=O)Nc2cccc(C(=O)Nc3cc(S(=O)(=O)[O-])cc4cc(S(=O)(=O)[O-])cc(S(=O)(=O)[O-])c34)c2)cc1[N+](=O)[O-].[Na+].[Na+].[Na+] [8-{m-[3-(3-Nitro-p-tolyl)ureido]benzamido}-1,3,6-naphthalenetrisulfonic acid, trisodium salt] | 32 min | +2 wells | –
